Results reported in ChEMBL document CHEMBL4138151, “Discovery of a head-to-tail cyclic peptide as the Keap1-Nrf2 protein-protein interaction inhibitor with high cell potency” (Eur J Med Chem, 2018).
Calls of active or inactive are those of the source. No cut-off for these calls is given here.

What was measured:
RAW264.7 [1] = experiment: Anti-inflammatory activity in mouse RAW264.7 cells assessed restoration of LPS-induced decrease in GSH-Px activity at 10 uM; assay type: functional, cell-based
RAW264.7 [2] = experiment: Anti-inflammatory activity in mouse RAW264.7 cells assessed as inhibition of LPS-induced IL-1beta production up to 10 uM pretreated for 10 hrs followed by LPS stimulation for 12 hrs by ELISA; assay type: functional, cell-based
RAW264.7 [3] = experiment: Inhibition of LPS-induced increase in ROS levels in mouse RAW264.7 cells up to 10 uM preincubated for 10 hrs followed by LPS stimulation for 12 hrs by cH2DCF-DA dye-based fluorescent microscopy; assay type: functional, cell-based
RAW264.7 [4] = experiment: Upregulation of SOD protein expression in mouse RAW264.7 cells at 1 uM after 8 hrs by Western blot analysis; assay type: functional, cell-based
[5] = target: T1, Kelch-like ECH-associated protein 1/Nuclear factor erythroid 2-related factor 2 (Mus musculus) (UniProt Q60795+Q9Z2X8); experiment: Inhibition of Keap1/Nrf2 protein-protein interaction in mouse RAW264.7 cells assessed as upregulation of GCLM mRNA expression at 1 uM after 10 hrs by quantitative real-time-PCR analysis; assay type: cell-based
[6] = target: T1, Kelch-like ECH-associated protein 1/Nuclear factor erythroid 2-related factor 2 (Mus musculus); experiment: Inhibition of Keap1/Nrf2 protein-protein interaction in mouse RAW264.7 cells assessed as upregulation of NQO1 mRNA expression at 1 uM after 10 hrs by quantitative real-time-PCR analysis; assay type: cell-based
[7] = target: T1, Kelch-like ECH-associated protein 1/Nuclear factor erythroid 2-related factor 2 (Mus musculus); experiment: Inhibition of Keap1/Nrf2 protein-protein interaction in mouse RAW264.7 cells assessed as increase in HO-1 levels up to 10 uM after 8 hrs by Western blot analysis; assay type: cell-based
[8] = target: T1, Kelch-like ECH-associated protein 1/Nuclear factor erythroid 2-related factor 2 (Mus musculus); experiment: Inhibition of Keap1/Nrf2 protein-protein interaction in mouse RAW264.7 cells assessed as increase in GCLM levels up to 10 uM after 8 hrs by Western blot analysis; assay type: cell-based
[9] = target: T1, Kelch-like ECH-associated protein 1/Nuclear factor erythroid 2-related factor 2 (Mus musculus); experiment: Inhibition of Keap1/Nrf2 protein-protein interaction in mouse RAW264.7 cells assessed as increase in NQO1 levels up to 10 uM after 8 hrs by Western blot analysis; assay type: cell-based
RAW264.7 [10] = experiment: Anti-inflammatory activity in mouse RAW264.7 cells assessed as restoration of LPS-induced decrease in SOD activity at 10 uM; assay type: functional, cell-based
RAW264.7 [11] = experiment: Upregulation of GSH-Px protein expression in mouse RAW264.7 cells at 1 uM after 8 hrs by Western blot analysis; assay type: functional, cell-based
RAW264.7 [12] = experiment: Anti-inflammatory activity in mouse RAW264.7 cells assessed as reduction in LPS-induced NO production by measuring NO level at 10 uM preincubated for 10 hrs followed by LPS stimulation for 12 hrs by Griess assay (reference value: 50 uM); assay type: functional
[13] = target: T1, Kelch-like ECH-associated protein 1/Nuclear factor erythroid 2-related factor 2 (Mus musculus); experiment: Inhibition of Keap1/Nrf2 protein-protein interaction in mouse RAW264.7 cells assessed as upregulation of HO1 mRNA expression at 1 uM after 10 hrs by quantitative real-time-PCR analysis; assay type: cell-based
RAW264.7 [14] = conditions: Mus musculus, up to 10 µM
Description: Anti-inflammatory activity in mouse RAW264.7 cells assessed as inhibition of LPS-induced IL-18 production up to 10 uM pretreated for 10 hrs followed by LPS stimulation for 12 hrs by ELISA

RAW264.7 [15] = experiment: Anti-inflammatory activity in mouse RAW264.7 cells assessed as inhibition of LPS-induced TNFalpha production up to 10 uM pretreated for 10 hrs followed by LPS stimulation for 12 hrs by ELISA; assay type: functional, cell-based
RAW264.7 [16] = experiment: Anti-inflammatory activity in mouse RAW264.7 cells assessed inhibition of LPS-induced increase in MPO activity at 10 uM; assay type: functional, cell-based
[17] = target: T1, Kelch-like ECH-associated protein 1/Nuclear factor erythroid 2-related factor 2 (Mus musculus); experiment: Inhibition of Keap1/Nrf2 protein-protein interaction in mouse RAW264.7 cells assessed as upregulation of HO-1 mRNA expression at 0.1 to 10 uM after 10 hrs by quantitative real-time-PCR analysis; assay type: cell-based
[18] = target: T1, Kelch-like ECH-associated protein 1/Nuclear factor erythroid 2-related factor 2 (Mus musculus); experiment: Inhibition of Keap1/Nrf2 protein-protein interaction in mouse RAW264.7 cells assessed as upregulation of NQO1 mRNA expression at 0.1 to 10 uM after 10 hrs by quantitative real-time-PCR analysis; assay type: cell-based
[19] = target: T1, Kelch-like ECH-associated protein 1/Nuclear factor erythroid 2-related factor 2 (Mus musculus); experiment: Inhibition of Keap1/Nrf2 protein-protein interaction in mouse RAW264.7 cells assessed as upregulation of GCLM mRNA expression at 0.1 to 10 uM after 10 hrs by quantitative real-time-PCR analysis; assay type: cell-based

T1 sequence (Q60795 whole entry, looked up): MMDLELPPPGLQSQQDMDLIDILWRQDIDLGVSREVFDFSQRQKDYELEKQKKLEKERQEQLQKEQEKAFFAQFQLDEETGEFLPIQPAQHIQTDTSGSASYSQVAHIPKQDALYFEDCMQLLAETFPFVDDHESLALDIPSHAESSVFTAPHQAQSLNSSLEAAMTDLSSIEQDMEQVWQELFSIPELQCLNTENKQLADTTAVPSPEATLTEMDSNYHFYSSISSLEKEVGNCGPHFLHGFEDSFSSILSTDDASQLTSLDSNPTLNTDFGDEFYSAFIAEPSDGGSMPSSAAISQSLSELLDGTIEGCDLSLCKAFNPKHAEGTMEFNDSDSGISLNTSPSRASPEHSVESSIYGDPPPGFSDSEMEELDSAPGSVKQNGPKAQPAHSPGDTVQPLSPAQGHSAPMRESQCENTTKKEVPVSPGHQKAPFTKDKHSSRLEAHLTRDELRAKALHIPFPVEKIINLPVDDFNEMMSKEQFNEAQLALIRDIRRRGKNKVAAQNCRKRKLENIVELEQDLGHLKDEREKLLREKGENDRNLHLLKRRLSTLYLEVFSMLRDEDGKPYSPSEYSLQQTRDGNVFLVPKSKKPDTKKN
T1 sequence (Q9Z2X8 whole entry, looked up): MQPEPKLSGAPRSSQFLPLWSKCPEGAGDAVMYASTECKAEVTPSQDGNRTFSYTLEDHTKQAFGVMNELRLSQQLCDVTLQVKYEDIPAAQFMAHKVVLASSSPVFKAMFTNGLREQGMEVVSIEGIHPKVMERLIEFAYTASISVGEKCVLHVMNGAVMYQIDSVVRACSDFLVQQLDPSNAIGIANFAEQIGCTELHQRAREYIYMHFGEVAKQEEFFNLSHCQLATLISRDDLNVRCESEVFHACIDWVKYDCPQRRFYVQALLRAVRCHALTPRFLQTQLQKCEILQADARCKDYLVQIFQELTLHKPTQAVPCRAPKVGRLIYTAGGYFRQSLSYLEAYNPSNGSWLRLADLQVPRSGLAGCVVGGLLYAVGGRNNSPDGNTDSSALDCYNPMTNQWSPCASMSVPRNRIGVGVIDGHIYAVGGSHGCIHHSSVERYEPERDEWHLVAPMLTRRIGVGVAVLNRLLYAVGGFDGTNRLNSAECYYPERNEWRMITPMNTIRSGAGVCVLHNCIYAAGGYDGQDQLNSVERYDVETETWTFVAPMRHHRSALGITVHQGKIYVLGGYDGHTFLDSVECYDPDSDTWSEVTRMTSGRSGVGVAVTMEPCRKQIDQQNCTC

inhibition [17]	inhibition [18]	inhibition [19]	Structure (SMILES)	Activity (RAW264.7 [1])	inhibition (RAW264.7 [2])	inhibition (RAW264.7 [3])	Activity (RAW264.7 [4])	inhibition [5]	inhibition [6]	inhibition [7]	inhibition [8]	inhibition [9]	Activity (RAW264.7 [10])	Activity (RAW264.7 [11])	Activity (RAW264.7 [12]) [µM]	inhibition [13]	inhibition (RAW264.7 [14])	inhibition (RAW264.7 [15])	inhibition (RAW264.7 [16])
			CC(C)C[C@@H]1NC(=O)[C@H](Cc2ccccc2)NC(=O)[C@H](CCC(=O)O)NC(=O)CNC(=O)[C@H]([C@@H](C)O)NC(=O)[C@H](CCC(=O)O)NC(=O)[C@@H]2CCCN2C(=O)[C@H](CC(=O)O)NC(=O)[C@H](CC(C)C)NC(=O)[C@H](CCC(N)=O)NC(=O)CNC1=O	Active	Active	Active	Active	Active	Active	Active	Active	Active	Active	Active	14	Active	Active	Active	Active
inactive	inactive	inactive	CC(=O)NCC(=O)N[C@@H](CCC(N)=O)C(=O)N[C@@H](CC(C)C)C(=O)N[C@@H](CC(=O)O)C(=O)N1CCC[C@H]1C(=O)N[C@@H](CCC(=O)O)C(=O)N[C@H](C(=O)NCC(=O)N[C@@H](CCC(=O)O)C(=O)N[C@@H](Cc1ccccc1)C(=O)N[C@@H](CC(C)C)C(=O)O)[C@@H](C)O							inactive	inactive	inactive							
